Experiments:
Format in all cases: cell-based, human
PXB-cells [1] = experiment: Analysis of lipoprotein in culture supernatant (LipoSEARCH gel filtration HPLC) of PXB-cells; conditions: for content of Large-VLDL among the VLDL in the culture supernatant (neutral fat (triglyceride)): Large-VLDL alone changed
Procedure: The following day of seeding, medium A was removed. Instead, 500 μL of medium B (DMSO (+)) or medium C (DMSO (−)) was added. The plate was gently placed in an incubator (37° C., 5% CO2) and the cells were cultured for 5 days. After completion of culture, an image of the cells was taken by a photomicrographic camera. Then, the culture supernatant was recovered and subjected to analysis for lipoprotein in the culture supernatant described below. Lipoproteins contained in the culture supernatants of PXB-cells, HepG2 cells and HuH7 cells were analyzed by using LipoSEARCH (registered trademark) method (Skylight Biotech, Inc.). After completion of the culture mentioned above, the medium used in the culture was removed and 500 μL of medium D for analysis was added. The culture plate was gently placed in an incubator (37° C., 5% CO2) and the cells were cultured for 2 days. Thereafter, the culture supernatant was recovered, lipoproteins contained in the culture supernatant (80 μL) were fractionated into 4 types of subgroups, CM, VLDL, LDL and HDL fractions, by gel filtration HPLC. Cholesterol and neutral fat (triglyceride) contained in individual fractions were quantified by online enzyme reactions. Concentration analysis was carried out in accordance with the computer program specifically developed by Skylight Biotech, Inc. Note that, in the enzymatic reaction, Diacolor Liquid TG-S (manufactured by Toyobo Co., Ltd.) was used. As standard sera for cholesterol and neutral fat (triglyceride) concentration in CM, VLDL, LDL and HDL, the sera manufactured by Kyowa Hakko Kirin Co., Ltd. were used. PXB-cells were diluted with medium A. The diluted cell suspension (500 μL) was gently poured to individual wells of a culture plate. The plate was allowed to stand still for about 20 minutes until the cells were slightly in contact with the bottom surface of the wells and gently placed to an incubator (37° C., 5% CO2) to culture the cells. The following day of seeding, medium A was removed and 500 μL of medium B (DMSO (+)) was added. The plate was gently placed in an incubator (37° C., 5% CO2) and the cells were cultured for 13 days. After completion of culture, the cells were used in the following test. A medium of PXB-cells prepared above was exchanged with medium D containing 0.75 mM oleic acid, and gently placed in an incubator (37° C., 5% CO2). PXB-cells were cultured for two days. PXB-cells were prepared in the same manner as in the method set forth in “Preparation of cells” in the above step (1-1) except that the period of culture in medium B (DMSO (+)) was set at 6 days and subjected to the following test. The mediums for the PXB-cells prepared above were exchanged with mediums D containing 1 nM or 5 nM lomitapide respectively and gently placed in an incubator (37° C., 5% CO2). PXB-cells were cultured for two days. PXB-cells were prepared in the same manner as in the method set forth in “Preparation of cells” in the above step (1-1) and subjected to the following test. The mediums of the PXB-cells prepared above were exchanged with mediums D containing 10 μM, 50 μM or 100 μM fenofibrate and gently placed in an incubator (37° C., 5% CO2). The PXB-cells were cultured for 2 days. After completion of the culture, cholesterol and neutral fat (triglyceride) in the culture supernatant and cells were measured in accordance with the method described in the above section “Analysis of lipoprotein in culture supernatant” and “Analysis of lipoprotein in cells”, respectively.

PXB-cells [2] = experiment: Analysis of lipoprotein in cells (intracellular triglyceride and cholesterol, Cholestest) of PXB-cells; conditions: 2 days, data not shown
Procedure: Triglyceride in cells was measured by use of Cholestest (registered trademark) TG (Sekisui Medical Co., Ltd.) in accordance with the instruction by the manufacturer. More specifically, the cells were washed with PBS, and then, completely dewatered (stored at -80° C. until measurement). To each well containing the cells, 200 μL of TG enzyme solution (1) was added. A reaction was allowed to proceed while keeping the cells warm at 37° C. for 10 minutes (free glycerol was removed) Then, the cells were torn away by pipetting, transferred to a centrifuge tube and centrifuged at 10,000 rpm×10 minutes. Then, the supernatant (7.5 μL) was transferred to a 96-well microplate. To this, 68 μL of TG enzyme solution (1) was added and the microplate was kept warm at 37° C. for 10 minutes to remove completely free glycerol. Then, 25 μL of TG enzyme solution (2) was added and kept the plate warm at 37° C. for 10 minutes. The resultant reaction product was subjected to measurement of absorbance at 550 nm. The content of triglyceride was calculated based on HDL-[…] as the reference (triglyceride concentration of HDL-[…] was 52.26 mg/dL). Intracellular cholesterol was measured by use of Cholestest (registered trademark) CHO (Sekisui Medical Co., Ltd.) in accordance with the instruction by the manufacturer. […] The resultant reaction product was subjected to measurement of absorbance at 550 nm. The content of cholesterol was calculated based on HDL-[…] as the standard ([…] of HDL-[…] was 152.67 mg/dL). […] After completion of culture, the total cholesterol and total neutral fat (triglyceride) in culture supernatant and in cells were measured in accordance with the methods described in the sections “Analysis of lipoprotein in culture supernatant” and “Analysis of lipoprotein in cells”. […] After completion of the culture, cholesterol and neutral fat (triglyceride) in the culture supernatant and cells were measured in accordance with the method described in the above sections “analysis of lipoprotein in culture supernatant” and “analysis of lipoprotein in cells”, respectively. […]

PXB-cells [3] = experiment: Observation of fat droplets in PXB-cells by photomicrograph; conditions: 2% DMSO in medium, 5 days culture
Procedure: The following day of seeding, medium A was removed. Instead, 500 μL of medium B (DMSO (+)) or medium C (DMSO (−)) was added. The plate was gently placed in an incubator (37° C., 5% CO2) and the cells were cultured for 5 days. After completion of culture, an image of the cells was taken by a photomicrographic camera. Then, the culture supernatant was recovered and subjected to analysis for lipoprotein in the culture supernatant described below.

CCCCCCCC/C=C\CCCCCCCC(=O)O [oleic acid] was tested, and the “content of Large-VLDL among the VLDL in the culture supernatant (neutral fat (triglyceride))” value (PXB-cells [1]; 0.75 mM oleic acid in medium D, 2 days) was “significantly increased”, the “VLDL content in the culture supernatant (neutral fat (triglyceride))” value (PXB-cells [1]; 0.75 mM oleic acid in medium D, 2 days, PXB-cells pre-cultured 13 days in medium B (DMSO (+)), vs medium D control) was “significantly increased” and the “content of cholesterol in the culture supernatant” value (PXB-cells [1]; 0.75 mM oleic acid, 2 days, data not shown) was “change similarly to the content of neutral fat (triglyceride)”. For the same compound, the “content of cholesterol in the cells” value (PXB-cells [2]; 0.75 mM oleic acid) was “change similarly to the content of neutral fat (triglyceride)” and the “content of neutral fat (triglyceride) in the cells” value (PXB-cells [2]; 0.75 mM oleic acid) was “significantly increased”.
For O=C(NC1CCN(CCCCC2(C(=O)NCC(F)(F)F)c3ccccc3-c3ccccc32)CC1)c1ccccc1-c1ccc(C(F)(F)F)cc1 [lomitapide], the “VLDL content of the culture supernatant (neutral fat (triglyceride))” value (PXB-cells [1]; 5 nM lomitapide in medium D, 2 days, PXB-cells pre-cultured 6 days in medium B (DMSO (+)), vs ethanol control) was “significantly decreases”, the “content of Large-VLDL among the VLDL in the culture supernatant (neutral fat (triglyceride))” value (PXB-cells [1]; lomitapide in medium D, 2 days) was “significantly decreased” and the “content of neutral fat (triglyceride) in the cells” value (PXB-cells [2]; lomitapide (1 nM or 5 nM)) was “no change”.
For C[S+](C)[O-] [DMSO, dimethyl sulfoxide], the “number of fat droplets in PXB-cells, medium B (DMSO (+)) compared to medium C (DMSO (−))” value (PXB-cells [3]) was “about double” and the “secretion of total neutral fat (triglyceride) in lipoproteins, medium B (DMSO (+)) relative to medium C (DMSO (−))” value (PXB-cells [1]; 2% DMSO in medium, 5 days culture, culture supernatant) was “about 9 times”.

Reference: US20250263667A1, “HUMAN FATTY-LIVER MODEL CELLS FOR USE IN SCREENING METHOD” (PhoenixBio Co., Ltd., priority 2021, published 2025)
